Article PMC2073845, “Tracer Studies of Potential Radiosensitizing Agents” (British Journal of Cancer, 1956)
Read-outs that look alike come from different tables or passages of the source.

Tests used:
[1] = tested on: chick fibroblasts; settings: cited from earlier work
[2] = Radioactivity in blood, plasma and urine as percentage of injected dose, tumour-bearing rats
Text: OPO3Na2 OPO3Na2 OP03H2 ICOH3 CH3 CH3 131I I 82Br CH3 1311 OPO3Na2 OPO3Na2 OP03H2 I II III METHODS AND MATERIALS Counting.-y-emission from the halogens was the basis of detection. The simple technique of placing samples of the organs under a shielded counter could not be used since variations in the thickness of the organs would vary the sample- counter distance, leading to considerable counting errors. This type of error was reduced by locating the sample on a thin aluminium tray midway between two G-10-Pb glass-covered Geiger-Muller tubes in copper sheaths placed 10 cm. apart in a castle of 2 inch lead and connected in parallel to the same scaler. The 50 D. H. MARRIAN AND D. R. MAXWELL sensitivity of the arrangement was about 9000 c.p.m./,tC 52Br. Samples and backgrounds were counted to a standard error of 5 per cent or less. […] The hydroscopic salt (II) was dissolved in 0 9 per cent saline and the concentration determined by ultraviolet spectroscopy (absorption maxima at 232m,u. (M = 70,000) and 290 m,u. (M = 5,800) in 0-01N- hydrochloric acid). […] Exposure to chlorine vapour caused red spots of bromofluoroscein to appear on a yellow background. […] The iodinated compound (III), was dissolved in 0 9 per cent saline and neutralised by addition of sodium hydroxide solution. The purity of the solution was determined by paper electrophoresis at pH 7 (Markham and Smith, 1952). This clearly separated the organic compound from iodide ion, the former being detected by ultraviolet photography and the latter by spraying with starch solution and exposure to chlorine vapour. […] It was dissolved in 0 9 per cent saline before injection. […] C. for 4 hours at pH 4, 6, 7 and 9 and the reaction mixtures examined by paper electrophoresis. […] The radioactivity of these planchettes when the organs were being counted was used to calculate the differential absorption ratio (D.A.R.), (Marrian and Maxwell, 1956). In most experiments with the bromo-compound, the time required to count the organ necessitated a decay correction, calculated from the known half-life of 82Br-bromine (36 ? 0*2 hours). […]

[3] = for injected compound in urine: 5 mg i.v.
Text: OPO3Na2 OPO3Na2 OP03H2 ICOH3 CH3 CH3 131I I 82Br CH3 1311 OPO3Na2 OPO3Na2 OP03H2 I II III METHODS AND MATERIALS Counting.-y-emission from the halogens was the basis of detection. The simple technique of placing samples of the organs under a shielded counter could not be used since variations in the thickness of the organs would vary the sample- counter distance, leading to considerable counting errors. This type of error was reduced by locating the sample on a thin aluminium tray midway between two G-10-Pb glass-covered Geiger-Muller tubes in copper sheaths placed 10 cm. apart in a castle of 2 inch lead and connected in parallel to the same scaler. The 50 D. H. MARRIAN AND D. R. MAXWELL sensitivity of the arrangement was about 9000 c.p.m./,tC 52Br. Samples and backgrounds were counted to a standard error of 5 per cent or less. […] The hydroscopic salt (II) was dissolved in 0 9 per cent saline and the concentration determined by ultraviolet spectroscopy (absorption maxima at 232m,u. (M = 70,000) and 290 m,u. (M = 5,800) in 0-01N- hydrochloric acid). […] Exposure to chlorine vapour caused red spots of bromofluoroscein to appear on a yellow background. […] The iodinated compound (III), was dissolved in 0 9 per cent saline and neutralised by addition of sodium hydroxide solution. The purity of the solution was determined by paper electrophoresis at pH 7 (Markham and Smith, 1952). This clearly separated the organic compound from iodide ion, the former being detected by ultraviolet photography and the latter by spraying with starch solution and exposure to chlorine vapour. […] It was dissolved in 0 9 per cent saline before injection. […] C. for 4 hours at pH 4, 6, 7 and 9 and the reaction mixtures examined by paper electrophoresis. […] Animal experiments Rats carring a Walker carcinoma were used as previously described (Marrian and Maxwell, 1956). […] The radioactivity of these planchettes when the organs were being counted was used to calculate the differential absorption ratio (D.A.R.), (Marrian and Maxwell, 1956). In most experiments with the bromo-compound, the time required to count the organ necessitated a decay correction, calculated from the known half-life of 82Br-bromine (36 ? 0*2 hours). […] Upper curve: single counter. Lower curve: double counter. Ordinate: Percentage error in the count.

[4] = Differential absorption ratio (D.A.R.) of organs of rats carrying a Walker carcinoma after injection of the radio-labelled compound
Text: (§1) OPO3Na2 OPO3Na2 OP03H2 ICOH3 CH3 CH3 131I I 82Br CH3 1311 OPO3Na2 OPO3Na2 OP03H2 I II III METHODS AND MATERIALS Counting.-y-emission from the halogens was the basis of detection. The simple technique of placing samples of the organs under a shielded counter could not be used since variations in the thickness of the organs would vary the sample- counter distance, leading to considerable counting errors. This type of error was reduced by locating the sample on a thin aluminium tray midway between two G-10-Pb glass-covered Geiger-Muller tubes in copper sheaths placed 10 cm. apart in a castle of 2 inch lead and connected in parallel to the same scaler. The 50 D. H. MARRIAN AND D. R. MAXWELL sensitivity of the arrangement was about 9000 c.p.m./,tC 52Br. Samples and backgrounds were counted to a standard error of 5 per cent or less. […] The hydroscopic salt (II) was dissolved in 0 9 per cent saline and the concentration determined by ultraviolet spectroscopy (absorption maxima at 232m,u. (M = 70,000) and 290 m,u. (M = 5,800) in 0-01N- hydrochloric acid). […] The purity of the solution was determined by paper electrophoresis at pH 7 (Markham and Smith, 1952). This clearly separated the organic compound from iodide ion, the former being detected by ultraviolet photography and the latter by spraying with starch solution and exposure to chlorine vapour. […]

[5] = set-up: method as in Mitchell, 1955; Marrian and Maxwell, 1956; settings: after intravenous injection; ref Mitchell, 1955; Marrian and Maxwell, 1956; cited from earlier work
[6] = Attempted exchange reactions with ammonium 82Br-bromide in vitro; format: physicochemical; settings: reactants in molar ratio; lower detection limit 2.0 per cent
Text: as §1

Compound: Cc1c([82Br])c(OP(=O)([O-])[O-])c2ccccc2c1OP(=O)([O-])[O-].[Na+].[Na+].[Na+].[Na+] [II, tetrasodium 2-methyl-3-82Br-bromo-I: 4-naphthohydroquinone diphosphate]
- antimitotic properties ([1]; ref Friedmann, Marrian and Simon-Reuss, 1952): established
- plasma share of the radioactivity of the whole blood ([2]; 1 mg i.v.): ~67 per cent
- radioactivity associated with the blood ([2]; after 30 minutes, 1 mg i.v.): about 15 per cent of the injected dose
- radioactivity excreted in the urine ([2]; of a 1 mg (10.6 uC) dose, during 48 hours): 30-35 per cent
- form of radioactivity in stomach contents (paper electrophoresis) ([3]; 6 hours after injection of 10 mg): present as bromide ion
- form of radioactivity in urine (paper chromatography) ([3]; rat given 5 mg intravenously): most of the radioactivity was present as bromide ion
- injected compound in urine ([3]; urine collected from 0 to 2 hours): small amounts
- injected compound in urine ([3]; urine collected from 2 to 6 hours after injection): None of the injected compound could be detected
- D.A.R. of the tumour compared with other organs ([4]; 1 mg i.v., only exceeded by stomach and contents): consistently higher than any of the above organs

Compound: Cc1c(C)c(OP(=O)(O)O)c([131I])c([131I])c1OP(=O)(O)O [III, 2: 3-dimethyl-5: 6-di-1311-iodo-I: 4-benzohydroquinone diphosphate]
- antimitotic properties ([1]; same test, ref Simon-Reuss, unpublished): inactive
- form of the label half an hour after injection ([3]; 10 mg, by comparison with reported iodide distribution): much of the label derived from compound (III) is present as free iodide ion
- iodide ion in stomach contents and urine (paper electrophoresis) ([3]; 10 mg, first 3 hours): contain large amounts of iodide ion
- radioactivity of the thyroid ([4]; 10 mg): no more radioactivity than the surrounding tissue

Compound: Cc1cc(OP(=O)(O)O)c2ccccc2c1OP(=O)(O)O [Synkavit, tetrasodium 2-methyl-I: 4-naphthohydro-quinone diphosphate]
- accumulation in tumour tissue [5]: can accumulate in tumour tissue for short periods

Compound: Cc1c(Br)c(OP(=O)([O-])[O-])c2ccccc2c1OP(=O)([O-])[O-].[Na+].[Na+].[Na+].[Na+] [Tetrasodium 2-methyl-3-bromo-1 4-naphthohydroquinone diphosphate]
- exchange with ammonium 82Br-bromide [6]: no exchange could be detected
